Assay results taken from patent US8759301B2, “Gene fusion targeted therapy” (The Regents of The University of Michigan, priority 2010, dated 2014).
Entries after “also recorded” stand apart in the source; their conditions may differ. Where two headings read alike, the source gives them in different places.

How the values were obtained:
AR [1] = target: AR (Homo sapiens, UniProt P10275); settings: VCaP, R1881 treated (10 nM, 16 hr, hormone deprived)
Description: For ERG ChIP, LNCaP, VCaP, RWPE+ERG, and RWPE+GUS cells grown in corresponding regular medium were used.
ChIP samples were prepared for sequencing using the Genomic DNA sample prep kit (Illumina) following manufacturers protocols. ChIP-Sequencing was performed using Illumina Genome Analyzer according to standard manufacturer's procedures. The raw sequencing image data were analyzed by the Illumina analysis pipeline, aligned to the unmasked human reference genome (NCBI v36, hg18) using the ELAND software (Illumina) to generate sequence reads of 25-32 bps.
It was first counted how many uniquely mapped reads are there in each sample and the ratio of the two counts was used as the normalizing factor to bring the total number of useable reads to the same level in both samples. Next each uniquely mapped read was extended directionally to form a 200 bp hypothetical DNA fragment (HDF) in each sample. 200 is assumed to be the average length of size-selected DNA pieces during sample preparation (175-225 bp).
Under the null hypothesis of no enrichment in the stimulated sample versus unstimulated samples, reads from both samples are assumed to land on the genome following the same Poisson distribution (after corrected for the read counts in the unstimulated sample). […] The probability of observing the read difference between two samples in each coverage region was calculated numerically. […]

AR mRNA = experiment: Quantitative PCR of AR transcript in VCaP cells; assay type: cell-based
Description: All PCR experiments were performed in triplicates.

AR protein = experiment: Immunoblot of AR protein in VCaP cells; assay type: cell-based
Description: VCaP cells grown in DMEMglutamax (Invitrogen, Carlsbad, Calif.) supplemented with 10% FBS to 80% confluence. Cells were harvested with or without formaldehyde crosslinking, and nuclei were isolated subsequently. After washing with TBS twice, nuclei were lysed and sonicated in RIPA buffer containing protease inhibitors (Roche applied science, Indianapolis, Ind.). […] Mouse monoclonal anti-AR antibody (AR441) from Labvision (Thermo scientific, Fremont, Calif.) was used for Western experiment.

AR [2] = target: AR (Homo sapiens, UniProt P10275, T878A); settings: for number of AR binding sites: LNCaP R1881-treated
Chain of AR (Homo sapiens, UniProt P10275, T878A) (P10275 whole entry T878A): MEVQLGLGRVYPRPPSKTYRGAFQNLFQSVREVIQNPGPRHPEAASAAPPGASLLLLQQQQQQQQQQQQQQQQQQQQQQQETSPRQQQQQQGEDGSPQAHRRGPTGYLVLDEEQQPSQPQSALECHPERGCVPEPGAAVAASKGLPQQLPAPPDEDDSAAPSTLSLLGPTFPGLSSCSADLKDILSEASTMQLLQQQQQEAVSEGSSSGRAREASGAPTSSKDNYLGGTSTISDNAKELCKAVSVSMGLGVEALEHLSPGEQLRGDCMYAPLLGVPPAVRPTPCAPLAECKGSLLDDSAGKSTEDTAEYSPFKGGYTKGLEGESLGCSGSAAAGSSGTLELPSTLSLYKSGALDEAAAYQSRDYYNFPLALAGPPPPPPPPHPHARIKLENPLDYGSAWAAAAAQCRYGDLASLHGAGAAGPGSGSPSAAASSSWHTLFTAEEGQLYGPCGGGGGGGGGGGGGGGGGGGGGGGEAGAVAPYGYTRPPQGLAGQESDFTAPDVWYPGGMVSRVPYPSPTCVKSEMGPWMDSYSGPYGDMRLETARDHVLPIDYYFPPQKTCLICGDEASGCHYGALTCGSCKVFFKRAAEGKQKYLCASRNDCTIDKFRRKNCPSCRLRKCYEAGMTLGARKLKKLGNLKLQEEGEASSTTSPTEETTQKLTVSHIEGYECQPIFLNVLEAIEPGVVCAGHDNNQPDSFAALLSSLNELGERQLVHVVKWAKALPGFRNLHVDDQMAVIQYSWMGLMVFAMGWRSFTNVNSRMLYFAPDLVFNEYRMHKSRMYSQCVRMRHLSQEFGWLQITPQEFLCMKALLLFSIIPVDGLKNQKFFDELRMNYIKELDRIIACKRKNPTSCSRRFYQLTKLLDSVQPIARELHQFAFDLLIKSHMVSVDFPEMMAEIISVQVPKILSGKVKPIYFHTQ

Chain of AR (Homo sapiens, UniProt P10275) (P10275 whole entry): as the sequence (P10275 whole entry T878A) above, with A878T counted along it

C[C@]1(O)CC[C@H]2[C@@H]3CCC4=CC(=O)CCC4=C3C=C[C@@]21C [R1881, methyltrienolone]
Enriched Peaks, AR ChIP-Seq (AR [1]): 21376 | AR mRNA expression (AR mRNA; VCaP cells): inhibits; also recorded: repression | repression of AR transcript (AR mRNA; hormone-deprived VCaP, 24 h after treatment, versus vehicle): over 10 folds | AR protein expression (AR protein): inhibits | number of AR binding sites (AR [2]; distance to TSS 7 kb): 145 | number of AR binding sites (AR [2]; distance to TSS 8 kb): 148 | number of AR binding sites (AR [2]; distance to TSS 9 kb): 139 | number of AR binding sites (AR [2]; distance to TSS 10 kb): 117 | number of AR binding sites (AR [2]; distance to TSS 11 kb): 120 | number of AR binding sites (AR [2]; distance to TSS 12 kb): 123 | number of AR binding sites (AR [2]; distance to TSS 13 kb): 134 | number of AR binding sites (AR [2]; distance to TSS 14 kb): 126 | number of AR binding sites (AR [2]; distance to TSS 15 kb): 137 | number of AR binding sites (AR [2]; distance to TSS 16 kb): 114 | number of AR binding sites (AR [2]; distance to TSS 17 kb): 109 | number of AR binding sites (AR [2]; distance to TSS 18 kb): 107 | number of AR binding sites (AR [2]; distance to TSS 19 kb): 109 | number of AR binding sites (AR [2]; distance to TSS 20 kb): 97 | number of AR binding sites (AR [2]; distance to TSS 21 kb): 97 | number of AR binding sites (AR [2]; distance to TSS 22 kb): 98 | number of AR binding sites (AR [2]; distance to TSS 23 kb): 100 | number of AR binding sites (AR [2]; distance to TSS 24 kb): 99 | number of AR binding sites (AR [2]; distance to TSS 25 kb): 105 | number of AR binding sites (AR [2]; distance to TSS 26 kb): 105 | number of AR binding sites (AR [2]; distance to TSS 27 kb): 86 | number of AR binding sites (AR [2]; distance to TSS 28 kb): 90 | number of AR binding sites (AR [2]; distance to TSS 29 kb): 76 | number of AR binding sites (AR [2]; distance to TSS 30 kb): 78 | number of AR binding sites (AR [2]; distance to TSS 31 kb): 101 | number of AR binding sites (AR [2]; distance to TSS 32 kb): 86 | number of AR binding sites (AR [2]; distance to TSS 33 kb): 94 | number of AR binding sites (AR [2]; distance to TSS 34 kb): 79 | number of AR binding sites (AR [2]; distance to TSS 35 kb): 68 | number of AR binding sites (AR [2]; distance to TSS 36 kb): 79 | number of AR binding sites (AR [2]; distance to TSS 37 kb): 88 | number of AR binding sites (AR [2]; distance to TSS 38 kb): 72 | number of AR binding sites (AR [2]; distance to TSS 39 kb): 57 | number of AR binding sites (AR [2]; distance to TSS 40 kb): 65 | number of AR binding sites (AR [2]; distance to TSS 41 kb): 76 | number of AR binding sites (AR [2]; distance to TSS 42 kb): 65 | number of AR binding sites (AR [2]; distance to TSS 43 kb): 73 | number of AR binding sites (AR [2]; distance to TSS 44 kb): 58 | number of AR binding sites (AR [2]; distance to TSS 45 kb): 69 | number of AR binding sites (AR [2]; distance to TSS 46 kb): 56 | number of AR binding sites (AR [2]; distance to TSS 47 kb): 53 | number of AR binding sites (AR [2]; distance to TSS 48 kb): 55 | number of AR binding sites (AR [2]; distance to TSS 49 kb): 61 | number of AR binding sites (AR [2]; distance to TSS 50 kb): 77 | number of AR binding sites (AR [2]; distance to TSS 51 kb): 50 | number of AR binding sites (AR [2]; distance to TSS 52 kb): 54 | number of AR binding sites (AR [2]; distance to TSS 53 kb): 61 | number of AR binding sites (AR [2]; distance to TSS 54 kb): 56 | number of AR binding sites (AR [2]; distance to TSS 55 kb): 41 | number of AR binding sites (AR [2]; distance to TSS 56 kb): 55 | number of AR binding sites (AR [2]; distance to TSS 57 kb): 59 | number of AR binding sites (AR [2]; distance to TSS 58 kb): 60 | number of AR binding sites (AR [2]; distance to TSS 59 kb): 58 | number of AR binding sites (AR [2]; distance to TSS 60 kb): 43 | number of AR binding sites (AR [2]; distance to TSS 61 kb): 36 | number of AR binding sites (AR [2]; distance to TSS 62 kb): 49 | number of AR binding sites (AR [2]; distance to TSS 63 kb): 40 | number of AR binding sites (AR [2]; distance to TSS 64 kb): 52 | number of AR binding sites (AR [2]; distance to TSS 65 kb): 50 | number of AR binding sites (AR [2]; distance to TSS 66 kb): 39 | number of AR binding sites (AR [2]; distance to TSS 67 kb): 37 | number of AR binding sites (AR [2]; distance to TSS 68 kb): 47 | number of AR binding sites (AR [2]; distance to TSS 69 kb): 47 | number of AR binding sites (AR [2]; distance to TSS 70 kb): 45 | number of AR binding sites (AR [2]; distance to TSS 71 kb): 43 | number of AR binding sites (AR [2]; distance to TSS 72 kb): 43 | number of AR binding sites (AR [2]; distance to TSS 73 kb): 57 | number of AR binding sites (AR [2]; distance to TSS 74 kb): 37 | number of AR binding sites (AR [2]; distance to TSS 75 kb): 34 | number of AR binding sites (AR [2]; distance to TSS 76 kb): 39 | number of AR binding sites (AR [2]; distance to TSS 77 kb): 48 | number of AR binding sites (AR [2]; distance to TSS 78 kb): 31 | number of AR binding sites (AR [2]; distance to TSS 79 kb): 37 | number of AR binding sites (AR [2]; distance to TSS 80 kb): 36 | number of AR binding sites (AR [2]; distance to TSS 81 kb): 35 | number of AR binding sites (AR [2]; distance to TSS 82 kb): 49 | number of AR binding sites (AR [2]; distance to TSS 83 kb): 39 | number of AR binding sites (AR [2]; distance to TSS 84 kb): 32 | number of AR binding sites (AR [2]; distance to TSS 85 kb): 39 | number of AR binding sites (AR [2]; distance to TSS 86 kb): 40 | number of AR binding sites (AR [2]; distance to TSS 87 kb): 31 | number of AR binding sites (AR [2]; distance to TSS 88 kb): 34 | number of AR binding sites (AR [2]; distance to TSS 89 kb): 33 | number of AR binding sites (AR [2]; distance to TSS 90 kb): 33 | number of AR binding sites (AR [2]; distance to TSS 91 kb): 41 | number of AR binding sites (AR [2]; distance to TSS 92 kb): 28 | number of AR binding sites (AR [2]; distance to TSS 93 kb): 36 | number of AR binding sites (AR [2]; distance to TSS 94 kb): 27 | number of AR binding sites (AR [2]; distance to TSS 95 kb): 28 | number of AR binding sites (AR [2]; distance to TSS 96 kb): 35 | number of AR binding sites (AR [2]; distance to TSS 97 kb): 27 | number of AR binding sites (AR [2]; distance to TSS 98 kb): 27 | number of AR binding sites (AR [2]; distance to TSS 99 kb): 34 | number of AR binding sites (AR [2]; distance to TSS 100 kb): 19 | number of AR binding sites (AR [2]; distance to TSS 101 kb): 24 | number of AR binding sites (AR [2]; distance to TSS 102 kb): 23 | number of AR binding sites (AR [2]; distance to TSS 103 kb): 28 | number of AR binding sites (AR [2]; distance to TSS 104 kb): 30 | number of AR binding sites (AR [2]; distance to TSS 105 kb): 20 | number of AR binding sites (AR [2]; distance to TSS 106 kb): 31 | Enriched Peaks, AR ChIP-Seq (AR [2]; LNCaP, R1881 treated (10 nM, 16 hr, hormone deprived)): 44536
